Data set [1] can be described thus: In-vitro dissolution study in vitreous humor. Format: physicochemical, Bovine. The conditions noted are these: crystals at 10 μm, 37° C., versus micronized TA at 10μ (FIG. 50). On the procedure:
The rate of dissolution of ACX-TA crystals versus micronized TA in vitreous humor was studied. Bovine eyes were obtained fresh, and the vitreous humor was extracted. The vitreous humor was stored at 5° C., prior to use. 1 ml of crystals of various sizes (1.78 μm, 4.7 μm, 10.18 μm, or 15 μm) were incubated in a shaking incubator at 37° C. Crystals were prepared as described in Table 37 or 38. The crystals of 1.78 μm were prepared using citrate buffer and were of Form B, and the crystals of 4.7 μm, 10.18 μm, and 15 μm were prepared using phosphate buffer and were of Form C.

The nature of the next data set: Tap density. The class given is physicochemical.
Data set [2] is described as follows: Thermal analysis (DSC/TGA). Format: physicochemical. On the procedure:
The table below summarizes the testing conditions and parameters for the simultaneous thermal analysis tests. The samples were (a) Fluticasone Propionate nanocrystals, and (b) Fluticasone Propionate, stock material. The specimens were tested under a heating rate of 10° C./min starting at 30° C. until reaching a final temperature of 350° C. This process was repeated for each specimen. The experiments were performed at EBATCO, LLC, Eden Prairie, Minn.
Thermal properties of the TA particles from Example 9 were investigated using a SHIMADZU® DSC-60 and TGA-50.
Approximately 10 mg of sample was analyzed in an open aluminum pan, and heated at scanning rate of 10° C.·min^−1 from room temperature to 320° C. […] Peak of the heat of melting is at 289.42° C., with ΔHm=83.50 J/g. In comparison, peak of the heat of melting for the nanocrystals produced by the process described in Example 9 is at 275.78° C., with ΔHm=108.45 J/g (FIG. 34).

The conditions of data set [3]: cited from earlier work.
For data set [4] the following is noted: oral dosing of labeled and unlabeled conventional fluticasone propionate; cited from earlier work.
A short description of data set [5]: Solubility of fluticasone propionate in FDA-approved solvents and excipients (RP-HPLC at 239 nm). The class given is physicochemical. On the procedure:
The specific composition of Phase I depends upon the solubility of the drug in this phase. […] The suspension was centrifuged at 10,000 rpm and the supernatant analyzed by RP-HPLC at 239 nm.

These results are taken from patent US9815865B2, “Preparations of hydrophobic therapeutic agents, methods of manufacture and use thereof” (Aciex Therapeutics, Inc., priority 2013, dated 2017).

Converted amounts (≈) assume the structure as drawn. Read-outs that look alike come from different tables or passages of the source. A value given as a limit tells only on which side of the number the result lay.

As to `CC1(C)O[C@@H]2C[C@H]3[C@@H]4CCC5=CC(=O)C=C[C@]5(C)[C@@]4(F)[C@@H](O)C[C@]3(C)[C@]2(C(=O)CO)O1` [ACX-TA crystals], the “rate of dissolution in vitreous humor” value in data set [1] was “much slower rate of dissolution than micronized TA”. In the data set “Tap density”, this molecule gave a tap density of 0.5677 g/mL.

For the molecule `CC1(C)O[C@@H]2C[C@H]3[C@@H]4CCC5=CC(=O)C=C[C@]5(C)[C@@]4(F)[C@@H](O)C[C@]3(C)[C@]2(C(=O)CO)O1` [Stock TA, as purchased], the “Tm (Melting Point)” value in data set [2] worked out at 289.61 °C.

What is called solubility is how much of the substance goes into solution per volume. Consider `CCC(=O)O[C@]1(C(=O)SCF)[C@H](C)C[C@H]2[C@@H]3C[C@H](F)C4=CC(=O)C=C[C@]4(C)[C@@]3(F)[C@@H](O)C[C@@]21C` [fluticasone propionate, (6α,11β,16α,17α)-6,9,-difluoro-11-hydroxy-16-methyl-3-oxo-17-(1-oxopropoxy) androsta-1,4-diene-17-carbothioic acid, S-fluoromethyl ester], for which the “solubility (descriptive)” value is reported as “freely soluble” in data set [3] (in dimethyl sulfoxide and dimethyl-formamide); “slightly soluble” in data set [3] (in methanol and 95% ethanol). Besides, in data set [4], the oral systemic bioavailability was less than 1%. The solubility in data set [5] (Acetone, 25 °C, organic solvent or mixture, thermodynamic from solid, in Acetone, overnight at 25 degrees centigrade, read-out: Solubility) was 63000 µg/mL (≈ 126000 µM); in data set [5] (Castor oil, 25 °C, oil or lipid, thermodynamic from solid, in Castor oil, overnight at 25 degrees centigrade, read-out: Solubility), 18 µg/mL (≈ 36 µM); in data set [5] (Corn oil, 25 °C, oil or lipid, thermodynamic from solid, in Corn oil, overnight at 25 degrees centigrade, read-out: Solubility), 6.9 µg/mL (≈ 13.8 µM); in data set [5] (Ethanol, 25 °C, organic solvent or mixture, thermodynamic from solid, in Ethanol, equilibrated overnight at 25 degrees centigrade, read-out: Solubility) it was 4450 µg/mL (≈ 8880 µM); in data set [5] (Glycerin, 25 °C, organic solvent or mixture, thermodynamic from solid, in Glycerin, overnight at 25 degrees centigrade, read-out: Solubility), 144 µg/mL (≈ 288 µM); in data set [5] (Methylene Chloride, 25 °C, organic solvent or mixture, thermodynamic from solid, in Methylene Chloride, overnight at 25 degrees centigrade, read-out: Solubility) it was 9250 µg/mL (≈ 18500 µM). Besides, the solubility was found to be 4210 µg/mL (≈ 8400 µM) in data set [5] (PEG 200, 25 °C, organic solvent or mixture, thermodynamic from solid, in PEG 200, overnight at 25 degrees centigrade, read-out: Solubility); 4330 µg/mL (≈ 8650 µM) in data set [5] (PEG 400, 25 °C, organic solvent or mixture, thermodynamic from solid, in PEG 400, overnight at 25 degrees centigrade, read-out: Solubility); 426 µg/mL (≈ 851 µM) in data set [5] (PHOSAL 50 PG, 25 °C, oil or lipid, thermodynamic from solid, in PHOSAL 50 PG, overnight at 25 degrees centigrade, read-out: Solubility); 2230 µg/mL (≈ 4450 µM) in data set [5] (PPG, 25 °C, organic solvent or mixture, thermodynamic from solid, in PPG, overnight at 25 degrees centigrade, read-out: Solubility); 7060 µg/mL (≈ 14100 µM) in data set [5] (Polysorbate 20, 25 °C, aqueous with cosolvent or surfactant or cyclodextrin, thermodynamic from solid, in Polysorbate 20, overnight at 25 degrees centigrade, read-out: Solubility); 4910 µg/mL (≈ 9810 µM) in data set [5] (Polysorbate 60, 25 °C, aqueous with cosolvent or surfactant or cyclodextrin, thermodynamic from solid, in Polysorbate 60, overnight at 25 degrees centigrade, read-out: Solubility). For the same molecule, the solubility in data set [5] (Polysorbate 80, 25 °C, aqueous with cosolvent or surfactant or cyclodextrin, thermodynamic from solid, in Polysorbate 80, overnight at 25 degrees centigrade, read-out: Solubility) is 4660 µg/mL (≈ 9300 µM); in data set [5] (Propylene glycol, 25 °C, organic solvent or mixture, thermodynamic from solid, in Propylene glycol, overnight at 25 degrees centigrade, read-out: Solubility), 764 µg/mL (≈ 1530 µM); in data set [5] (Span 20, 25 °C, aqueous with cosolvent or surfactant or cyclodextrin, thermodynamic from solid, in Span 20, overnight at 25 degrees centigrade, read-out: Solubility) it was 46.9 µg/mL (≈ 93.7 µM); in data set [5] (Span 80, 25 °C, aqueous with cosolvent or surfactant or cyclodextrin, thermodynamic from solid, in Span 80, overnight at 25 degrees centigrade, read-out: Solubility) it was 52.1 µg/mL (≈ 104 µM); in data set [5] (in Dextrose 5%, overnight at 25 degrees centigrade), 5.3 µg/mL (≈ 10.6 µM); in data set [5] (in PHOSAL 50 PG, overnight at 25 degrees centigrade), 660.1 µg/mL (≈ 1320 µM). The solubility in data set [5] (in PHOSAL 53 MCT, overnight at 25 degrees centigrade) was 400 µg/mL (≈ 799 µM); in data set [5] (in n-octanol, overnight at 25 degrees centigrade) it was 87.3 µg/mL (≈ 174 µM); in data set [5] (oleic acid, 25 °C, oil or lipid, thermodynamic from solid, in oleic acid, overnight at 25 degrees centigrade, read-out: Solubility) it was 13.6 µg/mL (≈ 27.2 µM); in data set [5] (phosphate buffer, 25 °C, pH 7, aqueous buffer, thermodynamic from solid, in Phos buff pH = 7, overnight at 25 degrees centigrade, read-out: Solubility) it was 9.5 µg/mL (≈ 19 µM); in data set [5] (water, 25 °C, water, thermodynamic from solid, in water, overnight at 25 degrees centigrade, read-out: Solubility), 0.14 µg/mL (≈ 0.28 µM).
